In patent US20260053764A1, “COMPOSITION FOR PREVENTING DETERIORATION IN COGNITIVE FUNCTION AND/OR IMPROVING COGNITIVE FUNCTION” (PHARMA FOODS INTERNATIONAL CO., LTD., priority 2020, published 2026):

System: health-associated QOL in a human
Assay: SF-36 health-associated QOL assessment in clinical tests A and B
Format: in vivo
Design: key to General health / Vitality / Mental health: SF-36 subscale score; higher score = better health state
Conditions: for Everyday role function (mental) / Everyday role function (physical) / General health / Mental health / Physical function / Vitality: mean ± SD
Text: SF-36 is known as a QOL assessment method associated with health, wherein SF-36 (MOS 36-Item Short-Form Health Survey) is a self-report type health state questionnaire that can rate eight health concepts (physical function, everyday role function (physical), body pain, general health, vitality, social function, everyday role function (mental) and mental health) as scores. A high score of each health concept (subscale) in SF-36 is interpreted as shown below. • Physical function . . . Capable of carrying out every type of activity including vigorous activity. • Everyday role function (physical) . . . There was no physical problem when carrying out work or normal activity during the past month. • Body pain . . . There was no body pain at all during the past month and usual work was not interfered by body pain at all. • General health . . . Health state is very good. • Vitality . . . Always full of energy during the past month. • Social life function . . . The usual social interactions with family, friends, neighbors and other companions were not at all interfered by any physical or psychological reason. • Everyday role function (mental) . . . There was no psychological problem when carrying out work or normal activity during the past month. • Mental health . . . The subject was in a calm, happy and peaceful mood during the past month.
Two types of placebo-controlled randomized double-blind two-group parallel comparison tests were carried out as clinical tests. […] Specifically, capsules comprising 100 mg of dextrin per capsule were used as the placebo food.
The screening examination was carried out to select 60 subjects for each test (a total of 120 subjects). MMSE (Mini Mental State Examination) is an examination for assessing the degree of progression of dementia or the like based on the score thereof with 30 as the perfect score, wherein dementia is suspected with a score of 23 or lower.
The total of 120 subjects were randomly divided into test A active group, test A placebo group, test B active group and test B placebo group with 30 subjects in each group. Each subject of the test A active group ingested two capsules of the active food, each subject of the test A placebo group ingested two capsules of the placebo food, each subject of the test B active group ingested one capsule of the active food and each subject of the test B placebo group ingested one capsule of the placebo food.
Each subject followed the schedule shown in the table below and ingested one or two of the assigned capsules together with water for 12 weeks from two weeks after the initial screening examination. All subjects had no particular instruction during the ingestion period and freely took their meals.
In addition, SF-36 was practiced as health-associated QOL assessment. Regarding SF-36, examination was carried out a total of four times, which are before starting test food ingestion, after four weeks of ingestion, after eight weeks of ingestion and after twelve weeks of ingestion.

[1] = test A 200 mg, before ingestion
[2] = test B 100 mg, before ingestion

SMILES: NCCCC(=O)O [GABA, γ-aminobutyric acid]
- Body pain: difference between active food and placebo food groups (test A 200 mg, 4 W): −2.1
- Everyday role function (mental): difference between active food and placebo food groups (test A 200 mg, 4 W): 1.9
- Everyday role function (physical): difference between active food and placebo food groups (test A 200 mg, 4 W): 2.8
- General health: difference between active food and placebo food groups (test A 200 mg, 4 W): 0.1
- Mental health: difference between active food and placebo food groups (test A 200 mg, 4 W): 3.6
- Physical function: difference between active food and placebo food groups (test A 200 mg, 4 W): 0.4
- Social life function: difference between active food and placebo food groups (test A 200 mg, 4 W): 1.1
- Vitality: difference between active food and placebo food groups (test A 200 mg, 4 W): 5.5
- Everyday role function (mental) (test A 200 mg, 4 w): 53.4 ± 6.0
- Everyday role function (physical) (test A 200 mg, 4 w): 54.3 ± 3.5
- General health (test A 200 mg, 4 w): 57.2 ± 7.9
- Mental health (test A 200 mg, 4 w): 56.0 ± 6.7
- Physical function (test A 200 mg, 4 w): 53.8 ± 6.2
- Vitality (test A 200 mg, 4 w): 56.1 ± 7.3
- Body pain: difference between active food and placebo food groups (test A 200 mg, 8 W): −2.9
- Everyday role function (mental): difference between active food and placebo food groups (test A 200 mg, 8 W): 1.1
- Everyday role function (physical): difference between active food and placebo food groups (test A 200 mg, 8 W): 3.3
- General health: difference between active food and placebo food groups (test A 200 mg, 8 W): 2.5
- Mental health: difference between active food and placebo food groups (test A 200 mg, 8 W): 3.5
- Physical function: difference between active food and placebo food groups (test A 200 mg, 8 W): −0.7
- Social life function: difference between active food and placebo food groups (test A 200 mg, 8 W): 0.9
- Vitality: difference between active food and placebo food groups (test A 200 mg, 8 W): 4.8
- Everyday role function (mental) (test A 200 mg, 8 w): 52.7 ± 5.7
- Everyday role function (physical) (test A 200 mg, 8 w): 53.8 ± 4.0
- General health (test A 200 mg, 8 w): 58.4 ± 7.4
- Mental health (test A 200 mg, 8 w): 56.3 ± 7.3
- Physical function (test A 200 mg, 8 w): 53.8 ± 6.1
- Vitality (test A 200 mg, 8 w): 55.6 ± 8.3
- Body pain: difference between active food and placebo food groups (test A 200 mg, 12 W): −0.3
- Everyday role function (mental): difference between active food and placebo food groups (test A 200 mg, 12 W): 1.5
- Everyday role function (physical): difference between active food and placebo food groups (test A 200 mg, 12 W): 2.1
- General health: difference between active food and placebo food groups (test A 200 mg, 12 W): 0.2
- Mental health: difference between active food and placebo food groups (test A 200 mg, 12 W): 3.5
- Physical function: difference between active food and placebo food groups (test A 200 mg, 12 W): −1.0
- Social life function: difference between active food and placebo food groups (test A 200 mg, 12 W): −1.1
- Vitality: difference between active food and placebo food groups (test A 200 mg, 12 W): 5.4
- Everyday role function (mental) (test A 200 mg, 12 w): 53.7 ± 5.4
- Everyday role function (physical) (test A 200 mg, 12 w): 54.2 ± 4.2
- General health (test A 200 mg, 12 w): 58.4 ± 6.5
- Mental health (test A 200 mg, 12 w): 57.0 ± 5.9
- Physical function (test A 200 mg, 12 w): 53.6 ± 7.2
- Vitality (test A 200 mg, 12 w): 57.1 ± 6.7
- Body pain: difference between active food and placebo food groups [1]: −0.7
- Everyday role function (mental): difference between active food and placebo food groups [1]: −0.1
- Everyday role function (physical): difference between active food and placebo food groups [1]: 1.3
- General health: difference between active food and placebo food groups [1]: 0.0
- Mental health: difference between active food and placebo food groups [1]: 0.3
- Physical function: difference between active food and placebo food groups [1]: 0.5
- Social life function: difference between active food and placebo food groups [1]: 2.1
- Vitality: difference between active food and placebo food groups [1]: 2.9
- Everyday role function (mental) [1]: 52.6 ± 6.3
- Everyday role function (physical) [1]: 54.2 ± 4.3
- General health [1]: 57.4 ± 7.4
- Mental health [1]: 54.1 ± 8.4
- Physical function [1]: 53.0 ± 6.1
- Vitality [1]: 54.6 ± 7.6
- scores regarding everyday role function (physical), GABA group compared to the placebo group (test A, after eight weeks of ingestion): significant improvement
- scores regarding emotional health, GABA group compared to the placebo group (test A, after four weeks of ingestion): significant improvement
- scores regarding energy, GABA group compared to the placebo group (test A, at least after four weeks of ingestion): significant improvement
- Body pain: difference between active food and placebo food groups (test B 100 mg, 4 W): −0.3
- Everyday role function (mental): difference between active food and placebo food groups (test B 100 mg, 4 W): 1.5
- Everyday role function (physical): difference between active food and placebo food groups (test B 100 mg, 4 W): 2.3
- General health: difference between active food and placebo food groups (test B 100 mg, 4 W): 1.2
- Mental health: difference between active food and placebo food groups (test B 100 mg, 4 W): 3.3
- Physical function: difference between active food and placebo food groups (test B 100 mg, 4 W): 1.8
- Social life function: difference between active food and placebo food groups (test B 100 mg, 4 W): 0.9
- Vitality: difference between active food and placebo food groups (test B 100 mg, 4 W): 3.0
- Everyday role function (mental) (test B 100 mg, 4 w): 53.0 ± 5.5
- Everyday role function (physical) (test B 100 mg, 4 w): 53.8 ± 4.2
- General health (test B 100 mg, 4 w): 58.3 ± 7.4
- Mental health (test B 100 mg, 4 w): 55.8 ± 5.8
- Physical function (test B 100 mg, 4 w): 55.2 ± 3.7
- Vitality (test B 100 mg, 4 w): 53.7 ± 7.6
- Body pain: difference between active food and placebo food groups (test B 100 mg, 8 W): 0.9
- Everyday role function (mental): difference between active food and placebo food groups (test B 100 mg, 8 W): 2.1
- Everyday role function (physical): difference between active food and placebo food groups (test B 100 mg, 8 W): 3.4
- General health: difference between active food and placebo food groups (test B 100 mg, 8 W): 1.2
- Mental health: difference between active food and placebo food groups (test B 100 mg, 8 W): 3.3
- Physical function: difference between active food and placebo food groups (test B 100 mg, 8 W): 2.2
- Social life function: difference between active food and placebo food groups (test B 100 mg, 8 W): 3.2
- Vitality: difference between active food and placebo food groups (test B 100 mg, 8 W): 4.0
- Everyday role function (mental) (test B 100 mg, 8 w): 53.7 ± 3.9
- Everyday role function (physical) (test B 100 mg, 8 w): 53.9 ± 3.5
- General health (test B 100 mg, 8 w): 57.2 ± 7.5
- Mental health (test B 100 mg, 8 w): 56.1 ± 5.8
- Physical function (test B 100 mg, 8 w): 56.6 ± 2.4
- Vitality (test B 100 mg, 8 w): 54.8 ± 7.2
- Body pain: difference between active food and placebo food groups (test B 100 mg, 12 W): 1.8
- Everyday role function (mental): difference between active food and placebo food groups (test B 100 mg, 12 W): 1.7
- Everyday role function (physical): difference between active food and placebo food groups (test B 100 mg, 12 W): 1.0
- General health: difference between active food and placebo food groups (test B 100 mg, 12 W): 1.0
- Mental health: difference between active food and placebo food groups (test B 100 mg, 12 W): 2.9
- Physical function: difference between active food and placebo food groups (test B 100 mg, 12 W): 1.3
- Social life function: difference between active food and placebo food groups (test B 100 mg, 12 W): 0.6
- Vitality: difference between active food and placebo food groups (test B 100 mg, 12 W): 2.8
- Everyday role function (mental) (test B 100 mg, 12 w): 53.9 ± 4.3
- Everyday role function (physical) (test B 100 mg, 12 w): 53.1 ± 4.2
- General health (test B 100 mg, 12 w): 59.2 ± 6.2
- Mental health (test B 100 mg, 12 w): 56.4 ± 5.6
- Physical function (test B 100 mg, 12 w): 55.9 ± 3.1
- Vitality (test B 100 mg, 12 w): 54.5 ± 7.4
- Body pain: difference between active food and placebo food groups [2]: 1.3
- Everyday role function (mental): difference between active food and placebo food groups [2]: 1.0
- Everyday role function (physical): difference between active food and placebo food groups [2]: 0.7
- General health: difference between active food and placebo food groups [2]: 0.1
- Mental health: difference between active food and placebo food groups [2]: 2.7
- Physical function: difference between active food and placebo food groups [2]: 3.0
- Social life function: difference between active food and placebo food groups [2]: 3.7
- Vitality: difference between active food and placebo food groups [2]: 2.7
- Everyday role function (mental) [2]: 53.7 ± 4.7
- Everyday role function (physical) [2]: 53.5 ± 3.9
- General health [2]: 57.5 ± 7.1
- Mental health [2]: 56.5 ± 5.4
- Physical function [2]: 55.6 ± 3.5
- Vitality [2]: 54.4 ± 7.6
- scores regarding physical function, GABA group compared to the placebo group (test B, after eight weeks of ingestion): significant improvement
